pIC50: −log10 of the molar value. Several values for one entry are separate records, joined by “and”; a condition that tells them apart may be missing. Equal values may be shown once. Square brackets hold non-standard residues; d marks the D form. Peptide text beside a SMILES is read from it. * marks the point of attachment. Dolaproine = CO[C@@H]([C@@H]1CCCN1)[C@@H](C)C(=O)O; Dil = CC[C@H](C)[C@H](NC)[C@@H](CC(=O)O)OC; X1 = C[C@@H](N*)[C@@H](O)c1ccccc1; NMeV = CN[C@H](C(=O)O)C(C)C

Data on two compounds can be found in patent publication US20220175761A1, “BI-LIGAND DRUG CONJUGATE AND USE THEREOF” (COHERENT BIOPHARMA (SUZHOU), LIMITED, priority 2019, published 2022).

What all share (assay): Inhibition of cell line proliferation, CCK8
Type in all cases: cell-based

Test [1] concerns LNCaP (human prostate cancer cells). The conditions noted are these: LNCaP; for pIC50: 68-72 hours, CCK8.
Test [2] relates to 22RV1 (human prostate cancer cells). The note with it: for pIC50: 22RV1, 68-72 hours, CCK8. An excerpt:
Since different cells have different sensitivity to a cell proliferation inhibitory toxicity of the payload in a ligand conjugate, the quantitative analysis may be interfered occasionally. A series of cell lines with known expression levels of receptors of different ligands were selected and tested for the response to inhibitory effects of the cell proliferation of a ligand conjugate and a single payload. The IC50 ratio of a single payload to that of a ligand conjugate in same cell line were taken to remove such interference.
(§1) Experimental operations: LNCaP and 22RV1 cells were prepared in advance, counted, and plated in 96-well cell culture plates at a cell density of 4×10^4 cells/ml and 2.0×10^4 cells/ml, respectively (100 μl/well); negative control and blank control wells were set on each plate. After adherent cell culture overnight, the diluted samples to be tested were added at 50 μl/well. The plates were placed in an incubator at 37° C., 5% CO2 and cultured for 68-72 hours. To each well, 15 μl (10% of the liquid volume in a well) of a color developing solution from CCK8 was added; and the plates were incubated at 37° C. for 45-70 minutes and each plate was read at 450 nm on a microplate reader. The data was edited using SoftMax Pro and a 4-P fitting curve was plotted.

Test [3] relates to CFPAC-1 (human pancreatic cancer cells). The note with it: for pIC50: CFPAC-1, 68-72 hours, CCK8.
Test [4] concerns PANC-1 (human pancreatic cancer cells). The conditions noted are these: for pIC50: PANC-1, 68-72 hours, CCK8. On the procedure: as §1, with “PANC-1” for “LNCaP”, “CFPAC-1” for “22RV1”, “cells/ml” for “cells/ml and 2.0×10^4 cells/ml, respectively”
(§2) Experimental operations: LNCaP, SK-BR-3, NCI-H226, CFPAC-1 and PANC-1 cells were prepared in advance and counted; with a culture medium (IMDM+10% FBS+1× L-Glutamine+1×P/S), the cells LNCaP, SK-BR-3 and CFPAC-1 were diluted to 4×10^4 cells/ml, NCI-H226 was diluted to 2.0×10^4 cells/ml and PANC-1 was diluted to 3.0×10^4 cells/ml; the diluted cell solution was plated in 96-well plates at 100 μl/well; and negative control and blank control wells were set on each plate. After adherent cell culture overnight, the diluted samples to be tested were added at 50 μl/well. The plates were placed in an incubator at 37° C., 5% CO2 and cultured for 68-72 hours. To each well, 15 μl (10% of the liquid volume in a well) of a color developing solution from CCK8 was added; and the plates were incubated at 37° C. for 45-70 minutes and each plate was read at 450 nm on a microplate reader. The data was edited using SoftMax Pro and a 4-P fitting curve was plotted.
as §2, with “Operations:” for “operations:”, “MDA-MB-468,” for “SK-BR-3, NCI-H226,”, “MDA-MB-468” for “SK-BR-3”, “cells/ml,” for “cells/ml, NCI-H226 was diluted to 2.0×10^4 cells/ml”

In the case of `CC[C@H](C)[C@@H]([C@@H](CC(=O)N1CCC[C@H]1[C@H](OC)[C@@H](C)C(=O)N[C@H](C)[C@@H](O)c1ccccc1)OC)N(C)C(=O)[C@@H](NC(=O)[C@H](C(C)C)N(C)C(=O)OCc1ccc(NC(=O)C(CCCNC(N)=O)NC(=O)[C@@H](NC(=O)CCCCCN2C(=O)CC(SC[C@H](NC(=O)[C@H](CCCCN)NC(=O)[C@H](CC(=O)O)NC(=O)[C@H](CC(=O)O)NC(=O)Cc3ccc(CNC(=O)NCCCC[C@H](NC(=O)N[C@@H](CCC(=O)O)C(=O)O)C(=O)O)cc3)C(=O)N[C@@H](CCCCNC(=O)CC[C@H](NC(=O)c3ccc(NCc4cnc5[nH]c(N)nc(=O)c5n4)cc3)C(=O)O)C(N)=O)C2=O)C(C)C)cc1)C(C)C` (stereo partly drawn) [CB-20BK], the “IC50 ratio (MMAE/conjugate)” value in test [1] stood at 0.0267; in test [2] (22RV1), 0.013. In addition, the pIC50 in test [1] was 7.02; in test [2] it was 6.30; in test [3] it was 6.25; in test [4], 6.90. Moreover, the “IC50 (MMAE)/IC50 (conjugate)” value in test [3] (CFPAC-1) worked out at 0.027; in test [4] (PANC-1) it was 0.020.
As for `CC[C@H](C)[C@@H]([C@@H](CC(=O)N1CCC[C@H]1[C@H](OC)[C@@H](C)C(=O)N[C@H](C)[C@@H](O)c1ccccc1)OC)N(C)C(=O)[C@@H](NC(=O)[C@@H](NC)C(C)C)C(C)C` [MMAE, monomethyl auristatin E] (H-[NMeV]V[Dil][Dolaproine]-X1), the pIC50 in test [1] is 8.59 and 8.52; in test [2], 8.19; in test [3], 7.82; in test [4], 8.70.
